Results published in patent US20220306695A1, “COMPSTATIN ANALOGUES AND THEIR MEDICAL USES” (priority 2019, published 2022).
Positions of bridges follow the written chain, without caps; N, C: chain ends. Non-standard residues stand in square brackets, D forms with d. Residues, ends and D or L forms follow the SMILES beside them. Trp(1-Me) = Cn1cc(C[C@H](N)C(=O)O)c2ccccc21; 2Nal = N[C@@H](Cc1ccc2ccccc2c1)C(=O)O; Sar = CNCC(=O)O

What was measured:
[1] = test system: classical complement pathway; test: In vitro haemolysis assay (inhibition of classical complement pathway); assay type: cell-based, human; conditions: Table 3; human serum, sensitized sheep red blood cells; read-out: IC50[nM], in vitro analysis of inhibition of hemolysis
Procedure, shortened: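 Serially diluted compound (9 points) was preincubated 15 min at room temperature with diluted human serum, titrated per batch to give 70-90% maximal haemolysis, in Tris/casein buffer pH 7.4 with Mg2+/Ca2+. Antibody-sensitized sheep erythrocytes were then added for 30 min at 37° C, and the reaction was stopped with EDTA. Haemolysis was read at A405, with IC50 from 4PL fit.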

[2] = Solubility test at 10 mg/mL (visual inspection and light scattering); assay type: physicochemical; conditions: for Solubility, Condition 1 Acetate pH 4: 10 mg/mL compound in 100 mM acetate pH 4; for Solubility, Condition 2 Acetate pH 5: 10 mg/mL compound in 100 mM acetate pH 5; for Solubility, Condition 3 Phosphate pH 6: 10 mg/mL compound in 100 mM phosphate pH 6; for Solubility, Condition 4 Phosphate pH 7: 10 mg/mL compound in 100 mM phosphate pH 7; for Solubility, Condition 5 Phosphate pH 7.5: 10 mg/mL compound in 100 mM phosphate pH 7.5

| Structure (SMILES) | IC50 [1] [nM] | Solubility, Condition 1 Acetate pH 4 [2] | Solubility, Condition 2 Acetate pH 5 [2] | Solubility, Condition 3 Phosphate pH 6 [2] | Solubility, Condition 4 Phosphate pH 7 [2] | Solubility, Condition 5 Phosphate pH 7.5 [2] |
| --- | --- | --- | --- | --- | --- | --- |
| CC[C@H](C)[C@H](NC(=O)[C@H](C)NC(=O)[C@H](CO)NC(=O)CNC(=O)[C@H](CCC(=O)O)NC(C)=O)C(=O)N[C@H]1CSSC[C@@H](C(=O)N[C@H](C(=O)N[C@@H](CCC(=O)O)C(N)=O)[C@@H](C)O)NC(=O)[C@H](CCCNC(=N)N)NC(=O)[C@H](Cc2c[nH]cn2)NC(=O)[C@H](CCC(=O)O)NC(=O)CNC(=O)[C@H](Cc2c[nH]c3ccccc23)NC(=O)[C@H](CC(=O)O)NC(=O)[C@H](CCC(N)=O)NC(=O)[C@H](Cc2c[nH]c3ccccc23)NC(=O)[C@H]([C@@H](C)CC)NC1=O [Compound 55] (Ac-EGSAICIWQDWGEHRCTE-NH2; disulfide 6-16) | < 250 | − (denotes lack of solubility at the given condition, as UV absorbance at 340 nm exceeds 0.1 AU and/or it is visibly turbid or contains particles.) | − (denotes lack of solubility at the given condition, as UV absorbance at 340 nm exceeds 0.1 AU and/or it is visibly turbid or contains particles.) | + (denotes solubility at the given condition, as determined by UV absorbance being less than 0.1 AU at 340 nm and the sample being clear when manually inspected.) | + (denotes solubility at the given condition, as determined by UV absorbance being less than 0.1 AU at 340 nm and the sample being clear when manually inspected.) | + (denotes solubility at the given condition, as determined by UV absorbance being less than 0.1 AU at 340 nm and the sample being clear when manually inspected.) |
| CC[C@H](C)[C@@H]1NC(=O)[C@@H](NC(=O)[C@H](Cc2ccc(O)cc2)NC(C)=O)CSSC[C@@H](C(=O)N[C@H](C(=O)NCC(=O)N[C@@H](C)C(=O)N[C@@H](CCC(=O)O)C(=O)N[C@@H](CO)C(N)=O)[C@@H](C)O)NC(=O)[C@H](CCCNC(=N)N)NC(=O)[C@H](Cc2c[nH]cn2)NC(=O)[C@H](CCC(=O)O)NC(=O)CNC(=O)[C@H](Cc2c[nH]c3ccccc23)NC(=O)[C@H](CC(=O)O)NC(=O)[C@H](CCC(N)=O)NC(=O)[C@H](Cc2cn(C)c3ccccc23)NC1=O [Compound 62] (Ac-YCI[Trp(1-Me)]QDWGEHRCTGAES-NH2; disulfide 2-12) | < 100 | − (denotes lack of solubility at the given condition, as UV absorbance at 340 nm exceeds 0.1 AU and/or it is visibly turbid or contains particles.) | − (denotes lack of solubility at the given condition, as UV absorbance at 340 nm exceeds 0.1 AU and/or it is visibly turbid or contains particles.) | + (denotes solubility at the given condition, as determined by UV absorbance being less than 0.1 AU at 340 nm and the sample being clear when manually inspected.) | + (denotes solubility at the given condition, as determined by UV absorbance being less than 0.1 AU at 340 nm and the sample being clear when manually inspected.) | + (denotes solubility at the given condition, as determined by UV absorbance being less than 0.1 AU at 340 nm and the sample being clear when manually inspected.) |
| CC[C@H](C)[C@@H]1NC(=O)[C@@H](NC(=O)[C@H](Cc2ccccc2)NC(=O)[C@H](CCC(=O)O)NC(=O)[C@H](CO)NC(C)=O)CSSC[C@@H](C(=O)N(C)CC(=O)NCC(=O)N[C@@H](C)C(=O)N[C@@H](CCC(=O)O)C(=O)N[C@@H](CO)C(N)=O)NC(=O)[C@H](CCCNC(=N)N)NC(=O)[C@H](Cc2c[nH]cn2)NC(=O)[C@H](CCC(=O)O)NC(=O)CNC(=O)[C@H](Cc2c[nH]c3ccccc23)NC(=O)[C@H](CC(=O)O)NC(=O)[C@H](CCC(N)=O)NC(=O)[C@H](Cc2cn(C)c3ccccc23)NC1=O [Compound 74] (Ac-SEFCI[Trp(1-Me)]QDWGEHRC[Sar]GAES-NH2; disulfide 4-14) | < 100 | − (denotes lack of solubility at the given condition, as UV absorbance at 340 nm exceeds 0.1 AU and/or it is visibly turbid or contains particles.) | + (denotes solubility at the given condition, as determined by UV absorbance being less than 0.1 AU at 340 nm and the sample being clear when manually inspected.) | + (denotes solubility at the given condition, as determined by UV absorbance being less than 0.1 AU at 340 nm and the sample being clear when manually inspected.) | + (denotes solubility at the given condition, as determined by UV absorbance being less than 0.1 AU at 340 nm and the sample being clear when manually inspected.) | + (denotes solubility at the given condition, as determined by UV absorbance being less than 0.1 AU at 340 nm and the sample being clear when manually inspected.) |
| CC[C@H](C)[C@@H]1NC(=O)[C@@H](NC(=O)[C@H](Cc2ccc(O)cc2)NC(C)=O)CSSC[C@@H](C(=O)N[C@H](C(=O)NCC(=O)N[C@@H](C)C(=O)N[C@@H](CCC(=O)O)C(=O)N[C@@H](CO)C(N)=O)[C@@H](C)O)NC(=O)[C@H](CCCNC(=N)N)NC(=O)[C@H](Cc2c[nH]cn2)NC(=O)[C@H](CCC(=O)O)NC(=O)CNC(=O)[C@H](Cc2c[nH]c3ccccc23)NC(=O)[C@H](CC(=O)O)NC(=O)[C@H](CCC(N)=O)NC(=O)[C@H](Cc2ccc3ccccc3c2)NC1=O [Compound 65] (Ac-YCI[2Nal]QDWGEHRCTGAES-NH2; disulfide 2-12) | < 100 | − (denotes lack of solubility at the given condition, as UV absorbance at 340 nm exceeds 0.1 AU and/or it is visibly turbid or contains particles.) | − (denotes lack of solubility at the given condition, as UV absorbance at 340 nm exceeds 0.1 AU and/or it is visibly turbid or contains particles.) | + (denotes solubility at the given condition, as determined by UV absorbance being less than 0.1 AU at 340 nm and the sample being clear when manually inspected.) | + (denotes solubility at the given condition, as determined by UV absorbance being less than 0.1 AU at 340 nm and the sample being clear when manually inspected.) | + (denotes solubility at the given condition, as determined by UV absorbance being less than 0.1 AU at 340 nm and the sample being clear when manually inspected.) |
